Measurements taken from publication PMC11729419, “Thiol-Reactive or Redox-Active: Revising a Repurposing Screen Led to a New Invalidation Pipeline and Identified a True Noncovalent Inhibitor Against Papain-like Protease from SARS-CoV-2” (ACS Pharmacology & Translational Science, 2024).
Read-outs that look alike come from different tables or passages of the source.

What was measured:
SARS-CoV-2 PLpro = SARS-CoV-2 PLpro (Severe acute respiratory syndrome coronavirus 2, UniProt P0DTD1); type: biochemical; conditions: dose-response, ISG15 substrate
SARS-CoV-2 PLpro-NAB = SARS-CoV-2 PLpro-NAB (Severe acute respiratory syndrome coronavirus 2, UniProt P0DTD1); test: biochemical
SARS-CoV-2 Mpro = SARS-CoV-2 Mpro (Severe acute respiratory syndrome coronavirus 2, UniProt P0DTD1); type: biochemical; conditions: 10 μM; 1 mM DTT
[1] = read-out: HC PLpro-NAB SARS-CoV-2 inhibition [%] 20 µM triplicates DTT BUFFER
[2] = read-out: HP PLpro-NAB SARS-CoV-2 inhibition [%] 20 µM triplicates L-CYS BUFFER

Row | Compound | Interference inhibition [%] 20 µM based on product interference DTT BUFFER (Table S1, 20 µM, DTT buffer) | further results
1 | NC(Cc1cc(O)c(O)cc1O)C(=O)O (racemic) [6-Hydroxy-DL-DOPA] | 14.95% | –
2 | Cc1nc2c(=O)n(C)c(=O)nc-2n(C)n1 [3-Methyl Toxoflavin] | 10.44% | –
3 | O=C1C(=O)c2ccccc2-c2ccccc21 [9,10-Phenanthrenequinone] | -2.46% | –
4 | C[n+]1c2cc(N)ccc2cc2ccc(N)cc21.[Cl-] [Acriflavinium Hydrochloride] | -17.48% | –
5 | CC1(C)CCC2=C(O1)C(=O)c1ccccc1C2=O [Alpha Lapachone] | -0.29% | –
6 | CC1(C)C(=O)N=C2C1=C(O)C(=O)c1ccccc12 [BVT-948] | -137.72% | –
7 | Cn1cccc1/C=C1\C(=O)NC(=O)c2ccccc21 [BYK-204165] | -5.54% | –
8 | CC1(C)CCC2=C(O1)c1ccccc1C(=O)C2=O [Beta-Lapachone] | 13.40% | –
9 | C[C@H]1COC2=C1C(=O)C(=O)c1c2ccc2c1CCCC2(C)C [Cryptotanshinone] | 3.37% | –
10 | O=c1cc(-c2cc(O)c(O)c(O)c2)oc2cc(O)c(O)c(O)c12 [DOM_SIM_710, 3′,4’,5′,5,6,7-hexahydroxyflavone] | 10.43% | Potency against PLpro compared with PLpro-NAB (SARS-CoV-2 PLpro): higher potency against PLpro compared with PLpro-NAB; Inhibition in L-cysteine buffer versus DTT buffer (dose-response) (SARS-CoV-2 PLpro-NAB; 1 mM L-cysteine vs 1 mM DTT): increased inhibition; Inhibitory activity on retest in 1 mM L-cysteine (SARS-CoV-2 PLpro-NAB; 50% inhibition at 20 μM, 1 mM L-cysteine): retained their inhibitory activity; inhibition at 20 µM (SARS-CoV-2 PLpro-NAB; hit confirmation, 20 μM, 1 mM DTT buffer, average (SD), 20 μM PR619 = 100%, DMSO = 0%, read-out: HC PLpro-NAB inhibition [%] 20 μM triplicates 1 mM DTT buffer): 65%; inhibition at 20 µM (SARS-CoV-2 PLpro-NAB; hit profiling, 20 μM, 1 mM L-cys buffer, average (SD), 20 μM PR619 = 100%, read-out: HP PLpro-NAB inhibition [%] 20 μM triplicates 1 mM L-cys buffer): 155%; IC50 (SARS-CoV-2 PLpro-NAB; hit profiling, 1 mM DTT buffer): > 20 µM; Preference PLpro over Mpro (SARS-CoV-2 Mpro): preferential inhibition of PLpro over Mpro
11 | CC(C)Nc1cccnc1N1CCN(C(=O)c2cc3cc(NS(C)(=O)=O)ccc3[nH]2)CC1 [Delavirdine (mesylate), Delavirdine] | – | inhibition at 20 µM (SARS-CoV-2 PLpro-NAB; [1]): 52.2%; inhibition at 20 µM (SARS-CoV-2 PLpro-NAB; [2]): -69.3%; Interference inhibition [%] 20 µM based on product interference DTT BUFFER: -20.91%
12 | Cc1cccc2c3c(ccc12)C1=C(C(=O)C3=O)[C@@H](C)CO1 [Dihydrotanshinone I] | -55.01% | –
13 | Cc1cc(-c2ccc(/N=N/c3ccc4c(S(=O)(=O)O)cc(S(=O)(=O)O)c(N)c4c3O)c(C)c2)ccc1/N=N/c1ccc2c(S(=O)(=O)O)cc(S(=O)(=O)O)c(N)c2c1O [Evans Blue] | 6.47% | –
14 | Oc1c(Cl)cc(Cl)c(Cl)c1Cc1c(O)c(Cl)cc(Cl)c1Cl [Hexachlorophene] | 15.14% | –
15 | CC[n+]1c(-c2ccccc2)c2cc(N)ccc2c2ccc(N)cc21 [Homidium Bromide] | 1.40% | –
16 | O=C1C=CC(=O)c2c(O)cccc21 [Juglone] | 12.84% | –
17 | CCOC(=O)C1=C(C)N=c2sc(=Cc3ccc(OCC(=O)O)cc3)c(=O)n2C1c1ccc(SC)cc1 (stereo not drawn) [ML120] | 3.32% | –
18 | COc1cccc2c(NCc3ccccc3)nc(-n3c(N)nc4ccccc43)nc12 [ML240] | 16.72% | –
19 | CC1=CC(=O)c2ccccc2C1=O [Menadione] | – | inhibition at 20 µM (SARS-CoV-2 PLpro-NAB; [1]): 115%; inhibition at 20 µM (SARS-CoV-2 PLpro-NAB; [2]): -45.7%; Interference inhibition [%] 20 µM based on product interference DTT BUFFER: -9.41%
